The text below walks through data of US5935805A, “Measurement of bilirubin albumin binding” (Research Corporation Technologies, Inc., priority 1997, dated 1999).

Where “and” joins values, the source holds several entries; their conditions need not be identical. Equal entries are not always repeated. Where two headings read alike, the source gives them in different places.

For data set [1], the system named is horseradish peroxidase. Kind of data set: Standardization of catalyzing reagent: peroxidase catalyzed oxidation of bilirubin by peroxide in the absence of albumin. The class given is biochemical. The conditions noted are these: about 21° C. How it is done: This is done by determining the Kp, i.e., the first order rate constant for the oxidation of bilirubin by the oxidizing reagent (usually peroxide) in the presence of the catalyzing reagent. The Kp is determined by standard techniques known in the art, utilizing known concentrations of unbound unconjugated bilirubin. […] If B is the unconjugated unoxidized bilirubin concentration at time t, P is the concentration of the catalyzing reagent e.g., peroxidase, Bo, and Bt are the initial unconjugated bilirubin concentration and the unconjugated bilirubin concentration at time t, respectively, and the concentration of the oxidizing reagent e.g., peroxide is not rate limiting, then at concentrations of bilirubin that are well below the Km for peroxidase catalyzed peroxide oxidation of bilirubin, (for HRP, this value is .congruent.70 uMol at 37° C.), then
dB/dt=-Kp ·P·B EQ.3
Integrating Equation 3 between the limits t=o and t=t, wherein t is the predetermined time referred to hereinabove provides [formula] Thus, in accordance with EQ.4, the value of Kp is determined if a known concentration of peroxidase is reacted with an excess amount of peroxide with a known amount of unbound unconjugated bilirubin.

For data set [2], the target named is T1, albumin (Homo sapiens, UniProt P02768). The note with it: lowest established value; cited from earlier work.
Data set [3] has as its target T1, albumin. The data set can be described thus: Bilirubin-albumin binding isotherm in minimally diluted newborn plasma titrated with bilirubin. The conditions noted are these: dilution 1:1.8, two-site model, non-linear regression. Set-up: Plasma from a partial exchange transfusion performed in a term newborn with polycythemia; from tissue; host or cells: plasma of a term newborn (partial exchange transfusion). An excerpt: Plasma from a partial exchange transfusion performed in a term newborn with polycythemia was titrated with bilirubin and the unconjugated unbound bilirubin determined by the present method to assess the bilirubin-albuminbinding isotherm in minimally diluted plasma. Non-linear regression used to determine the equilibrium binding constants, and a two-site model with interaction between sites best fit the binding isotherm.

For data set [4], the target named is T1, albumin. Kind of data set: Oxidation of bilirubin-14C/defatted albumin by peroxidase and peroxide, Sephadex G25 column radioactivity. The class given is biochemical. The note with it: for Bilirubin: 50 μg/mL peroxidase, 1000 μmol/L ethyl hydrogen peroxide; for Eluate counts/min: albumin fraction from Sephadex G25; for Bilirubin (% time 0): 278 µM. Here is the method:
A bilirubin-^14 C/defatted albumin solution (molar ratio 0.42) containing 278 μmol/L bilirubin and 60,839 counts per minute, 50 μg/mL peroxidase, and 1000 μmol/L ethyl hydrogen peroxide were allowed to react for 8 minutes. At various times (0 to 8 minutes), 100 μl of reaction mix was removed and added to 10 μl of 100 mmol/L Na2 S to stop the reaction. The bilirubin concentration was calculated from the absorption at 460 nm after dilution to 1.0 ml with 0.055M Somensen's buffer, and the entire diluted reaction mixture was then placed on a Sephadex G25 0.5×5 cm (diameter×length) column prepared according to the manufacturer's instructions. The albumin fraction was then eluted with buffer. The bilirubin remaining and the radioactivity of the eluate were measured at each time interval to determine whether the oxidation products remained bound to albumin during the reaction and therefore passed through the Sephadex column with the albumin.

Data set [5] relates to newborns. The conditions noted are these: displaces bilirubin from albumin, blood level 15 mg/dL reported; cited from earlier work.
Data set [6] has as its target T1, albumin. Kind of data set: Unbound bilirubin in bilirubin-defatted albumin solution with sulfisoxazole, peroxidase method of the instant invention at 1:1.8 dilution. Format: binding. The note with it: 15 mg/dL sulfisoxazole; bilirubin 20 mg/dL, defatted albumin 3.0 g/dL; dilution 1:1.8; mean and SD of 3 replicates. The source says:
(§1) A 0.1 cm path cuvette was employed to allow direct spectral analysis of the unbound bilirubin at the 1:1.8 dilution.

The target in data set [7] is T1, albumin. The data set can be described thus: Unbound bilirubin in bilirubin-defatted albumin solution with sulfisoxazole, Jacobsen and Wennberg method at 1:41.8 dilution. The class given is binding. The conditions noted are these: 15 mg/dL sulfisoxazole; bilirubin 20 mg/dL, defatted albumin 3.0 g/dL; dilution 1:41.8; mean and SD of 3 replicates. How it is done:
as §1
The Jacobsen and Wennberg method was performed as above using a 1 cm path cuvette. The […] technique was performed by stopping the reaction after five minutes with 1.0 ml of diazo-A and then adding 1.0 ml of 90% methanol.

T1 sequence (P02768 25-609): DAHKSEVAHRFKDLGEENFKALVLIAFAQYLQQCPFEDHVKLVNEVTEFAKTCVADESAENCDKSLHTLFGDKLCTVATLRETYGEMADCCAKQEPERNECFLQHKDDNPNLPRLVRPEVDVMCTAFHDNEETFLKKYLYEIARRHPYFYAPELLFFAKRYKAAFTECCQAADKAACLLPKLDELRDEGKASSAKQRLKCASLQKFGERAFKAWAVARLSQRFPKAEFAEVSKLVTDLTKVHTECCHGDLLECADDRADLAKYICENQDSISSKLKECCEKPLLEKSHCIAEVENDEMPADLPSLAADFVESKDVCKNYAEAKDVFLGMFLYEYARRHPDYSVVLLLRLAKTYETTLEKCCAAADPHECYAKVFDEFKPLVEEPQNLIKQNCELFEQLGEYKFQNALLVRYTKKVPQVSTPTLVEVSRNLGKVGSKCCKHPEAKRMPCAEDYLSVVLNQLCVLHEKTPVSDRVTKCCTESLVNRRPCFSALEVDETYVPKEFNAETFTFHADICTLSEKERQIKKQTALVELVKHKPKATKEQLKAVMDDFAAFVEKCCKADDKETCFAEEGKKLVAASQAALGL

For the compound horseradish peroxidase, the “Kp, first order rate constant for catalyzed oxidation of bilirubin” value in data set [1] is listed as “about eight”.

Take `C=CC1=C(C)/C(=C/c2[nH]c(Cc3[nH]c(/C=C4\NC(=O)C(C)=C4C=C)c(C)c3CCC(=O)O)c(CCC(=O)O)c2C)NC1=O` [bilirubin, bilirubin IXa]: the “First order dissociation rate constant k-1 of the bilirubin-albumin complex, lowest value” in data set [2] is recorded as “about 0.4 /min”. Also, the Kd amounted to 0.059 µM in data set [3] (read-out: Equilibrium dissociation constant, 1:1 bilirubin/albumin species) and 0.0303 µM in data set [3] (read-out: Equilibrium dissociation constant, 2:1 bilirubin/albumin species). Besides, the “Eluate counts/min (% time 0)” value in data set [4] (reaction time 0 min) is 100 % time 0; in data set [4] (reaction time 4 min), 97 % time 0 and 92 % time 0; in data set [4] (reaction time 6 min), 87 % time 0 and 82 % time 0; in data set [4] (reaction time 8 min), 87 % time 0 and 86 % time 0. The Bilirubin is 4.86 µmol/L and 4.93 µmol/L in data set [4] (reaction time 0 min); 3.07 µmol/L and 3.36 µmol/L in data set [4] (reaction time 4 min); 2.70 µmol/L and 2.60 µmol/L in data set [4] (reaction time 6 min); 2.14 µmol/L and 2.24 µmol/L in data set [4] (reaction time 8 min). Further, the Eluate counts/min was 57,675 counts/min and 57,692 counts/min in data set [4] (reaction time 0 min); 55,797 counts/min and 53,070 counts/min in data set [4] (reaction time 4 min); 50,119 counts/min and 47,500 counts/min in data set [4] (reaction time 6 min); 50,174 counts/min and 49,405 counts/min in data set [4] (reaction time 8 min). The “Bilirubin (% time 0)” value in data set [4] (reaction time 4 min, 4 min) is 63 % time 0 and 68 % time 0; in data set [4] (reaction time 6 min, 6 min), 55 % time 0 and 53 % time 0.

For `Cc1noc(NS(=O)(=O)c2ccc(N)cc2)c1C` [sulfisoxazole], the “Bilirubin toxicity when given to newborns” value in data set [5] is “development of bilirubin toxicity”. Moreover, the “CONCENTRATION OF UNBOUND BILIRUBIN + Sulfa” value in data set [6] was 0.285 ± 0.03 μm; in data set [7], 0.092 ± .003 μm.
